# From ChEMBL document CHEMBL4507257, “Data for DCP probe ABT-100” (2021)
# Tests used:
# [1] = molecular target: Ribosomal protein S6 kinase alpha-6 (Homo sapiens) (UniProt Q9UK32); details: Compound concentration 1000.0 nM
# [2] = molecular target: Receptor tyrosine-protein kinase erbB-3 (Homo sapiens) (UniProt P21860); details: Compound concentration 1000.0 nM
# [3] = tested on: Epidermal growth factor receptor (Homo sapiens), P00533 [G719C]; details: Compound concentration 1000.0 nM
# [4] = molecular target: Serine/threonine-protein kinase DCLK2 (Homo sapiens) (UniProt Q8N568); details: Compound concentration 1000.0 nM
# [5] = molecular target: Ribosomal protein S6 kinase alpha-4 (Homo sapiens) (UniProt O75676); details: Compound concentration 1000.0 nM
# [6] = tested on: Phosphatidylinositol 4,5-bisphosphate 3-kinase catalytic subunit alpha isoform (Homo sapiens), P42336 [H1047L]; details: Compound concentration 1000.0 nM
# [7] = molecular target: Sigma intracellular receptor 2 (Homo sapiens) (UniProt Q5BJF2); details: Compound concentration 10.0 uM
# [8] = molecular target: Casein kinase II subunit alpha (Homo sapiens) (UniProt P68400); details: Compound concentration 1000.0 nM
# [9] = molecular target: Serine/threonine-protein kinase MRCK gamma (Homo sapiens) (UniProt Q6DT37); details: Compound concentration 1000.0 nM
# [10] = molecular target: Serine/threonine-protein kinase ULK3 (Homo sapiens) (UniProt Q6PHR2); details: Compound concentration 1000.0 nM
# [11] = molecular target: Mitogen-activated protein kinase 6 (Homo sapiens) (UniProt Q16659); details: Compound concentration 1000.0 nM
# [12] = tested on: Tyrosine-protein kinase ABL1 (Homo sapiens), P00519 [F317I]; details: Compound concentration 1000.0 nM
# [13] = molecular target: Serine/threonine-protein kinase 10 (Homo sapiens) (UniProt O94804); details: Compound concentration 1000.0 nM
# [14] = molecular target: Serine/threonine-protein kinase WNK2 (Homo sapiens) (UniProt Q9Y3S1); details: Compound concentration 1000.0 nM
# [15] = tested on: Mast/stem cell growth factor receptor Kit (Homo sapiens), P10721 [V559D,V654A]; details: Compound concentration 1000.0 nM
# [16] = molecular target: Ribosomal protein S6 kinase beta-1 (Homo sapiens) (UniProt P23443); details: Compound concentration 1000.0 nM
# [17] = tested on: Epidermal growth factor receptor (Homo sapiens), P00533 [L861Q]; details: Compound concentration 1000.0 nM
# [18] = molecular target: Glycogen synthase kinase-3 beta (Homo sapiens) (UniProt P49841); details: Compound concentration 1000.0 nM
# [19] = molecular target: Ephrin type-A receptor 3 (Homo sapiens) (UniProt P29320); details: Compound concentration 1000.0 nM
# [20] = molecular target: Serine/threonine-protein kinase BRSK2 (Homo sapiens) (UniProt Q8IWQ3); details: Compound concentration 1000.0 nM
# [21] = molecular target: Rhodopsin kinase GRK7 (Homo sapiens) (UniProt Q8WTQ7); details: Compound concentration 1000.0 nM
# [22] = molecular target: Mu-type opioid receptor (Homo sapiens) (UniProt P35372); details: Compound concentration 10.0 uM
# [23] = molecular target: Dual specificity tyrosine-phosphorylation-regulated kinase 1A (Homo sapiens) (UniProt Q13627); details: Compound concentration 1000.0 nM
# [24] = molecular target: Death-associated protein kinase 3 (Homo sapiens) (UniProt O43293); details: Compound concentration 1000.0 nM
# [25] = molecular target: Fibroblast growth factor receptor 3 (Homo sapiens) (UniProt P22607); details: Compound concentration 1000.0 nM
# [26] = molecular target: Serine/threonine-protein kinase ULK1 (Homo sapiens) (UniProt O75385); details: Compound concentration 1000.0 nM
# [27] = molecular target: Angiopoietin-1 receptor (Homo sapiens) (UniProt Q02763); details: Compound concentration 1000.0 nM
# [28] = tested on: Epidermal growth factor receptor (Homo sapiens), P00533 [L858R]; details: Compound concentration 1000.0 nM
# [29] = molecular target: Serine/threonine-protein kinase D2 (Homo sapiens) (UniProt Q9BZL6); details: Compound concentration 1000.0 nM
# [30] = molecular target: Serine/threonine-protein kinase PLK4 (Homo sapiens) (UniProt O00444); details: Compound concentration 1000.0 nM
# [31] = molecular target: D(3) dopamine receptor (Homo sapiens) (UniProt P35462); details: Compound concentration 10.0 uM
# [32] = tested on: Proto-oncogene tyrosine-protein kinase receptor Ret (Homo sapiens), P07949 [V804L]; details: Compound concentration 1000.0 nM
# [33] = molecular target: NT-3 growth factor receptor (Homo sapiens) (UniProt Q16288); details: Compound concentration 1000.0 nM
# [34] = molecular target: Casein kinase II subunit alpha' (Homo sapiens) (UniProt P19784); details: Compound concentration 1000.0 nM
# [35] = molecular target: Serine/threonine-protein kinase 38-like (Homo sapiens) (UniProt Q9Y2H1); details: Compound concentration 1000.0 nM
# [36] = molecular target: Non-receptor tyrosine-protein kinase TNK1 (Homo sapiens) (UniProt Q13470); details: Compound concentration 1000.0 nM
# [37] = molecular target: Mitogen-activated protein kinase 15 (Homo sapiens) (UniProt Q8TD08); details: Compound concentration 1000.0 nM
# [38] = molecular target: Mitogen-activated protein kinase kinase kinase 7 (Homo sapiens) (UniProt O43318); details: Compound concentration 1000.0 nM
# [39] = molecular target: Phosphatidylinositol 5-phosphate 4-kinase type-2 gamma (Homo sapiens) (UniProt Q8TBX8); details: Compound concentration 1000.0 nM
# [40] = tested on: Mast/stem cell growth factor receptor Kit (Homo sapiens), P10721 [A829P]; details: Compound concentration 1000.0 nM
# [41] = molecular target: Phosphatidylinositol 4,5-bisphosphate 3-kinase catalytic subunit beta isoform (Homo sapiens) (UniProt P42338); details: Compound concentration 1000.0 nM
# [42] = molecular target: Mitogen-activated protein kinase kinase kinase kinase 1 (Homo sapiens) (UniProt Q92918); details: Compound concentration 1000.0 nM
# [43] = molecular target: Serine/threonine-protein kinase Chk1 (Homo sapiens) (UniProt O14757); details: Compound concentration 1000.0 nM
# [44] = molecular target: Serine/threonine-protein kinase 38 (Homo sapiens) (UniProt Q15208); details: Compound concentration 1000.0 nM
# [45] = molecular target: Calcium/calmodulin-dependent protein kinase kinase 1 (Homo sapiens) (UniProt Q8N5S9); details: Compound concentration 1000.0 nM
# Chain of Casein kinase II subunit alpha (Homo sapiens) (P68400 whole entry, looked up): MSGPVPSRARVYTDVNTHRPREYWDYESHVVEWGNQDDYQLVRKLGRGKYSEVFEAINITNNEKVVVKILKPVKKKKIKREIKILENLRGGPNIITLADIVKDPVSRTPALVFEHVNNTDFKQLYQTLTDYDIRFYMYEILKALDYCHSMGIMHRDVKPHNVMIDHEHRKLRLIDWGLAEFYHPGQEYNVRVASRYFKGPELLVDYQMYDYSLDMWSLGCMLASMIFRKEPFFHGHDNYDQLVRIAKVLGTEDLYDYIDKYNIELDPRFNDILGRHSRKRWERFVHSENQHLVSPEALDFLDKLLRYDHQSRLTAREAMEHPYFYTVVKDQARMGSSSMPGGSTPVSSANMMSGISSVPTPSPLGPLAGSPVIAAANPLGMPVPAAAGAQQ
# Chain of Serine/threonine-protein kinase ULK3 (Homo sapiens) (Q6PHR2 whole entry): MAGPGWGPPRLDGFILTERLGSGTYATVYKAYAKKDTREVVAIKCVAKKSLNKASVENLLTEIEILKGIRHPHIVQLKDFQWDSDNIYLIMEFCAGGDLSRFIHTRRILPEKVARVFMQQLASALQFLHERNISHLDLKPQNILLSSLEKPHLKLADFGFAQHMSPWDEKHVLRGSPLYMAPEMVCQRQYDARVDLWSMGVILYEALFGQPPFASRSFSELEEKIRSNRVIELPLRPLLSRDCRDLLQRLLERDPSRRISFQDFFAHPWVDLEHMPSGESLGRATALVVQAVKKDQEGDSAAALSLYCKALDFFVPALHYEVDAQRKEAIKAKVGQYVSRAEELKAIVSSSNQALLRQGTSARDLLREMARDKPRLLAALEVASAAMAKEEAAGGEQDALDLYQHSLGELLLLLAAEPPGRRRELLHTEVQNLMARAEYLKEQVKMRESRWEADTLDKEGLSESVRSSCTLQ
# Chain of Serine/threonine-protein kinase MRCK gamma (Homo sapiens) (Q6DT37 whole entry): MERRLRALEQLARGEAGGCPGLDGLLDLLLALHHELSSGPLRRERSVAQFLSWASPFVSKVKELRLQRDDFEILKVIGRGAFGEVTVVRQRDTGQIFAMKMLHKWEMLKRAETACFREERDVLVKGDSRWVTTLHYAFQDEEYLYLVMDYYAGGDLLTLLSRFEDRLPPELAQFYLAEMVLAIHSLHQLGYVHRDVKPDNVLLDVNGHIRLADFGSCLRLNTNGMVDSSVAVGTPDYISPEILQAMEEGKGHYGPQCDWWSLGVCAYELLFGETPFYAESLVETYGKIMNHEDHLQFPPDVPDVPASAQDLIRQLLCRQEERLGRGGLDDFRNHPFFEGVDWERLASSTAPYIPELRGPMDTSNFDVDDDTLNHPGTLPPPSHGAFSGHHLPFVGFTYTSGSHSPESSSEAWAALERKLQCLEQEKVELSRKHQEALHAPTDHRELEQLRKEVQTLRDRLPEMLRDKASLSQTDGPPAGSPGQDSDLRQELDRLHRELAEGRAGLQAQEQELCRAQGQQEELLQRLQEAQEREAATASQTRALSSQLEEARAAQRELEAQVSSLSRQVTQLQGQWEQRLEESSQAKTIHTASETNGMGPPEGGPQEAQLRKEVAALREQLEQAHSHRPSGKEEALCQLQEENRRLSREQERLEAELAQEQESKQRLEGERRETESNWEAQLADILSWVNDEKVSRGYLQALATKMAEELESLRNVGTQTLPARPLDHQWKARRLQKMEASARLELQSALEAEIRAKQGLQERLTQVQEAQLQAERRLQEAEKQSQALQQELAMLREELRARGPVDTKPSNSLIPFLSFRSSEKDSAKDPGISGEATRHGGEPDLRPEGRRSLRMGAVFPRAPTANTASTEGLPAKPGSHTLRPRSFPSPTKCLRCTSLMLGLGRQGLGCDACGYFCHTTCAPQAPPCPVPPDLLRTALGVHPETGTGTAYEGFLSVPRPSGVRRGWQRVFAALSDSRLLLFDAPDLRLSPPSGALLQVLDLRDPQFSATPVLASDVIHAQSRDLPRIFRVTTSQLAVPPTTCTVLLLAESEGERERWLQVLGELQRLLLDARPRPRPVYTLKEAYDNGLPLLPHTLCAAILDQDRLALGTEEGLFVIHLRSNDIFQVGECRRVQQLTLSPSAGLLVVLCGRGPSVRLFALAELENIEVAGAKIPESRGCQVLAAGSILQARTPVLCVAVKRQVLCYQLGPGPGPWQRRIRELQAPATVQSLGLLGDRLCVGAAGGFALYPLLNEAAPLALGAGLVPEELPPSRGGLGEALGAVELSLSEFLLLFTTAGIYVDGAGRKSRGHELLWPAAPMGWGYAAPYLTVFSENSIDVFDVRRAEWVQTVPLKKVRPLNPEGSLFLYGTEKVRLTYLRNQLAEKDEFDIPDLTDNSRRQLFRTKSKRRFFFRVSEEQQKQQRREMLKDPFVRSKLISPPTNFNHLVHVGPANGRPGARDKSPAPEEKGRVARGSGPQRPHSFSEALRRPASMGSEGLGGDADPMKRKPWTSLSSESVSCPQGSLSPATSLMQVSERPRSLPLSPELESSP
# Chain of Casein kinase II subunit alpha' (Homo sapiens) (P19784 whole entry, looked up): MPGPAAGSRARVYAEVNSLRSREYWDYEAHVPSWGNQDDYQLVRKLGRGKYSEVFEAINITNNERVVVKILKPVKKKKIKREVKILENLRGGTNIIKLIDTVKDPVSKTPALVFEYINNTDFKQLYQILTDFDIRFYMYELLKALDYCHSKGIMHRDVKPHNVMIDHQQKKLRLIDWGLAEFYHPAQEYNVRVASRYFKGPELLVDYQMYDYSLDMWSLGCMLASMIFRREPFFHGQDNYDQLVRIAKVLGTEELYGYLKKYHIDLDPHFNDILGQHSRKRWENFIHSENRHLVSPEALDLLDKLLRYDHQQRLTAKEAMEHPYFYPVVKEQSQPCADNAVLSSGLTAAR
# Chain of Ribosomal protein S6 kinase alpha-6 (Homo sapiens) (Q9UK32 whole entry): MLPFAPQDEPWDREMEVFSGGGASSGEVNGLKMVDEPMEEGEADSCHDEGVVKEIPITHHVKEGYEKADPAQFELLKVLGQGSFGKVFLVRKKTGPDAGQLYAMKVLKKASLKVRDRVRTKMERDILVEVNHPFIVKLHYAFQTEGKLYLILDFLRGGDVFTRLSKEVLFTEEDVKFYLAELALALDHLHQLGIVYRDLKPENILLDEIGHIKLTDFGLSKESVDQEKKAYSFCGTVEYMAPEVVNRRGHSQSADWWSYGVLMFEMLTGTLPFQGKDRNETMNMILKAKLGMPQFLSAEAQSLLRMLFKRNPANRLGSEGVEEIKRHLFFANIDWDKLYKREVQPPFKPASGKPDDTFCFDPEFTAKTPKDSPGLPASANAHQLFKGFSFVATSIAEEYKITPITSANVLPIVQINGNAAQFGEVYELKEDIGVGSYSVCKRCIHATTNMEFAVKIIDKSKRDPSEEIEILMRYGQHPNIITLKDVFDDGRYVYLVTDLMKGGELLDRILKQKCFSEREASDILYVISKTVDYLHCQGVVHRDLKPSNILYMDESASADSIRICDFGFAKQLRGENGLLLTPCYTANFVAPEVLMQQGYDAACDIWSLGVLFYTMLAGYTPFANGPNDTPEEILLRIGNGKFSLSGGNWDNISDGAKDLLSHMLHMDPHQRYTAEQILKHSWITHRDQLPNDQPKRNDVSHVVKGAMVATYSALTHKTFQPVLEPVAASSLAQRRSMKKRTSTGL
# Chain of Mitogen-activated protein kinase 15 (Homo sapiens) (Q8TD08 whole entry): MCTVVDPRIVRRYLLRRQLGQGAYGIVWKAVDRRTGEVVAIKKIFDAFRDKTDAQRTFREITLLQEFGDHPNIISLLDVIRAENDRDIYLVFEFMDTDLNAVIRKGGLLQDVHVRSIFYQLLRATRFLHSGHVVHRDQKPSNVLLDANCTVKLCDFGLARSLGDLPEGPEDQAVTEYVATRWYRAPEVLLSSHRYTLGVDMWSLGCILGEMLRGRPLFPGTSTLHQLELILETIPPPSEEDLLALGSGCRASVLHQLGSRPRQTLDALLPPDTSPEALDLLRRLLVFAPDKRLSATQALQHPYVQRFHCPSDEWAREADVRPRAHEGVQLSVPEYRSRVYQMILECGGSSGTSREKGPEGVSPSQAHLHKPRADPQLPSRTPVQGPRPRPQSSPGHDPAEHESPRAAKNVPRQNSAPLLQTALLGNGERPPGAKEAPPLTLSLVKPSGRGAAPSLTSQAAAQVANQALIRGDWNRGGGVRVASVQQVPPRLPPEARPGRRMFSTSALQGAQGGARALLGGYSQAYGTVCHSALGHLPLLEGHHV
# Chain of Serine/threonine-protein kinase DCLK2 (Homo sapiens) (Q8N568 whole entry): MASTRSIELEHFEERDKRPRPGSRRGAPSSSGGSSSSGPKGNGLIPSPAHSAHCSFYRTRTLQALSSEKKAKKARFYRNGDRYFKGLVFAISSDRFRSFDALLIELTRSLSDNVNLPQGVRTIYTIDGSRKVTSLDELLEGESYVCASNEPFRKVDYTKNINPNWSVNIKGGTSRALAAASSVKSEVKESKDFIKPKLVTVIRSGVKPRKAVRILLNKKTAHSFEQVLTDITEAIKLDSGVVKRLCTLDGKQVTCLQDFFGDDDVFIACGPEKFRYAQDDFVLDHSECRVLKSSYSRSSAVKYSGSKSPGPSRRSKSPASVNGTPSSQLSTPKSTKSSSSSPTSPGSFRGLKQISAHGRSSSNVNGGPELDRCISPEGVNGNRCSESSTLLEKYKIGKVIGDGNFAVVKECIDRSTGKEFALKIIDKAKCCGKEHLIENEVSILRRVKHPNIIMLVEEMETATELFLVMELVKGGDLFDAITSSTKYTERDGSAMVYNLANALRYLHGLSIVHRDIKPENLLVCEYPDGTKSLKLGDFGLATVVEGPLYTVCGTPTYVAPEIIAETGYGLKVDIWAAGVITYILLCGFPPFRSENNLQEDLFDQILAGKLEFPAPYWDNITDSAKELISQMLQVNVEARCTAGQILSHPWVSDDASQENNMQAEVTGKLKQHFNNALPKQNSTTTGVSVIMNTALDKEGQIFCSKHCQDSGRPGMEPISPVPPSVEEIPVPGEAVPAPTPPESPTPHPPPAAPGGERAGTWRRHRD
# Chain of Sigma intracellular receptor 2 (Homo sapiens) (Q5BJF2 whole entry): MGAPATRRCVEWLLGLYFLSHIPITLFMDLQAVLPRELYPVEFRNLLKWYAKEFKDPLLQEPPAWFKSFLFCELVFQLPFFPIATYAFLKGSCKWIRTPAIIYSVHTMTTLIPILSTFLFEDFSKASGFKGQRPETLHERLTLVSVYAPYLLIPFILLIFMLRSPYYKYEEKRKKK
structure (smiles),measurement,setting,value
Cn1cncc1[C@](O)(COc1ccc(C#N)cc1-c1ccc(OC(F)(F)F)cc1)c1ccc(C#N)cc1 [ABT-100],residual activity,[1],91%
same,residual activity,[2],87%
same,residual activity,[3],82%
same,residual activity,[4],98%
same,residual activity,[5],89%
same,residual activity,[6],100%
same,inhibition,[7],40.3%
same,residual activity,[8],63%
same,residual activity,[9],85%
same,residual activity,[10],88%
same,residual activity,[11],85%
same,residual activity,[12],100%
same,residual activity,[13],100%
same,residual activity,[14],67%
same,residual activity,[15],100%
same,residual activity,[16],96%
same,residual activity,[17],71%
same,residual activity,[18],93%
same,residual activity,[19],90%
same,residual activity,[20],48%
same,residual activity,[21],100%
same,inhibition,[22],16.4%
same,residual activity,[23],81%
same,residual activity,[24],88%
same,residual activity,[25],83%
same,residual activity,[26],100%
same,residual activity,[27],92%
same,residual activity,[28],86%
same,residual activity,[29],84%
same,residual activity,[30],94%
same,inhibition,[31],-9.46%
same,residual activity,[32],82%
same,residual activity,[33],80%
same,residual activity,[34],100%
same,residual activity,[35],65%
same,residual activity,[36],56%
same,residual activity,[37],58%
same,residual activity,[38],100%
same,residual activity,[39],87%
same,residual activity,[40],79%
same,residual activity,[41],96%
same,residual activity,[42],100%
same,residual activity,[43],97%
same,residual activity,[44],75%
same,residual activity,[45],77%
Cn1cncc1[C@@](O)(COc1ccc(C#N)cc1-c1ccc(OC(F)(F)F)cc1)c1ccc(C#N)cc1 [A-108],residual activity,[1],94%
same,residual activity,[2],89%
same,residual activity,[3],66%
same,residual activity,[4],100%
same,residual activity,[5],93%
same,residual activity,[6],100%
same,inhibition,[7],37.8%
same,residual activity,[8],100%
same,residual activity,[9],96%
same,residual activity,[10],78%
same,residual activity,[11],93%
same,residual activity,[12],88%
same,residual activity,[13],100%
same,residual activity,[14],84%
same,residual activity,[15],100%
same,residual activity,[16],94%
same,residual activity,[17],100%
same,residual activity,[18],100%
same,residual activity,[19],100%
same,residual activity,[20],100%
same,residual activity,[21],81%
same,inhibition,[22],-3.25%
same,residual activity,[23],99%
same,residual activity,[24],100%
same,residual activity,[25],100%
same,residual activity,[26],95%
same,residual activity,[27],92%
same,residual activity,[28],100%
same,residual activity,[29],100%
same,residual activity,[30],84%
same,inhibition,[31],18.1%
same,residual activity,[32],89%
same,residual activity,[33],99%
same,residual activity,[34],100%
same,residual activity,[35],87%
same,residual activity,[36],88%
same,residual activity,[37],100%
same,residual activity,[38],67%
same,residual activity,[39],96%
same,residual activity,[40],100%
same,residual activity,[41],75%
same,residual activity,[42],100%
same,residual activity,[43],100%
same,residual activity,[44],100%
same,residual activity,[45],100%
